In patent US20260070929A1, “METHODS AND COMPOSITIONS FOR MODULATING KRAS(G12D)” (Ranok Therapeutics (Hangzhou) Co. LTD., priority 2022, published 2026):
Where two headings read alike, the source gives them in different places.

Legend:
[1] = test system: AGS gastric carcinoma cells [heterozygous G12D]; test: Cancer cell line proliferation (CellTiter-Glo), AGS; assay type: cell-based; settings: 72 hr treatment, read-out: AGS CTG (EC50)
Summary of the method: (§1)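 First, plate 4,000 cells per well and incubate 72 hr (37° C., 5% CO2). Next, add compound from a 3-fold dilution series spanning 20 μM to 1.02 nM, keeping DMSO at 0.5%. Then incubate another 72 hr, add CellTiter-Glo, and derive EC50.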

[2] = test system: SW1990 pancreatic adenocarcinoma cells [homozygous G12D]; test: Cancer cell line proliferation (CellTiter-Glo), SW1990; assay type: cell-based; settings: Homo sapiens, 72 hr treatment, read-out: SW1990 CTG (EC50)
Summary of the method: as §1

[3] = test system: A-427 lung carcinoma cells [heterozygous G12D]; test: Cancer cell line proliferation (CellTiter-Glo), A-427; assay type: cell-based; settings: A-427 cells, 72 hr treatment, read-out: A427 CTG (EC50)
Summary of the method: as §1

KRAS(G12D)/SOS1 = biological target: T1, KRAS(G12D)/SOS1 (Homo sapiens, UniProt P01116, G12D); test: KRAS(G12D)/SOS1 homogeneous time-resolved fluorescence (HTRF) assay; assay type: binding; settings: absence of GTP; 4° C., 3 hr
T1 construct: purchased Cisbio 63ADK000CB17PEH
T1 sequence (P01116 1-188 isoform P01116-2 G12D): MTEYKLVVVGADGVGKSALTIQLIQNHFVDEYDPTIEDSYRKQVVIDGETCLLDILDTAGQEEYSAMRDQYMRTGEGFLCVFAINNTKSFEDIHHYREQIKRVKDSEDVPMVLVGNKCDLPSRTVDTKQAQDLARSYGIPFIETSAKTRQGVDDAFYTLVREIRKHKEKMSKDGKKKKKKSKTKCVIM
Summary of the method: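 Disruption of the KRAS(G12D)/SOS1 pairing, in the absence of GTP, was read by time-resolved FRET after a 3 hr sealed incubation at 4 °C. Test compounds spanned 20 µM down to 1.02 nM in 3-fold steps. IC50 values correspond to half-maximal inhibition.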

[4] = test system: ASPC1 pancreatic adenocarcinoma cells [homozygous G12D]; test: Cancer cell line proliferation (CellTiter-Glo), ASPC1; assay type: cell-based; settings: 72 hr treatment, read-out: ASPC-1 CTG (EC50)
Summary of the method: as §1

SMILES | EC50 ([1]; Homo sapiens) | EC50 [2] | EC50 ([3]; Homo sapiens) | IC50 (KRAS(G12D)/SOS1) | EC50 ([4]; Homo sapiens, ASPC1, 72 h) | EC50 [1] | EC50 [3] | EC50 [4]
CC(C)c1cc(C(=O)N2Cc3ccc(CN4CCC(CN5CCN(CC6(COc7nc(N8CC9CCC(C8)N9)c8cnc(-c9cccc%10ccccc9%10)c(F)c8n7)CC6)CC5)CC4)cc3C2)c(O)cc1O [Compound 128] | 100 to 1000 nM | 100 to 1000 nM | 100 to 1000 nM | < 100 nM | 100 to 1000 nM |  |  | 
Cc1cccc2cccc(-c3ncc4c(N5CC6CCC(C5)N6)nc(OC[C@@H]5CC[C@H](CN6CCN(Cc7ccc(-n8c(C(=O)NC(C)C(F)(F)F)nnc8-c8cc(C(C)C)c(O)cc8O)cc7)CC6)N5C)nc4c3F)c12 (stereo partly drawn) [Compound 107] | 100 to 1000 nM | 100 to 1000 nM | 100 to 1000 nM | 100 to 1000 nM | 100 to 1000 nM |  |  | 
C#Cc1cccc2cc(O)cc(-c3ncc4c(N5CC6CCC(C5)N6C(C)=O)nc(OCC5(CN6CCN(CC7CCN(Cc8ccc9c(c8)CN(C(=O)c8cc(C(C)C)c(O)cc8O)C9)CC7)CC6)CC5)nc4c3F)c12 [Compound 151] | 100 to 1000 nM | 100 to 1000 nM | 100 to 1000 nM | < 100 nM | 100 to 1000 nM |  |  | 
C#Cc1cccc2cccc(-c3ncc4c(N5CC6CCC(C5)N6)nc(OC[C@@H]5C[C@H](CN6CCN(Cc7ccc8c(c7)CN(C(=O)c7cc(C(C)C)c(O)cc7O)C8)CC6)CN5C)nc4c3F)c12 [Compound 122] | 100 to 1000 nM | 100 to 1000 nM | 100 to 1000 nM | < 100 nM | 100 to 1000 nM |  |  | 
C#Cc1c(F)ccc2cc(O)cc(-c3ncc4c(N5CC6CCC(C5)N6)nc(OCC5(CN6CCN(CC7CCN(Cc8ccc(-n9c(C(=O)NC(C)C(F)(F)F)nnc9-c9cc(C(C)C)c(O)cc9O)cc8)CC7)CC6)CC5)nc4c3F)c12 (stereo not drawn) [Compound 153] | < 100 nM | < 100 nM | < 100 nM | < 100 nM | < 100 nM |  |  | 
C#Cc1cccc2cc(O)cc(-c3ncc4c(N5CC6CCC(C5)N6)nc(OCC5(CN6CCC(OC7CCN(Cc8ccc(-n9c(C(=O)NCC(F)(F)F)nnc9-c9cc(C(C)C)c(O)cc9O)cc8)CC7)CC6)CC5)nc4c3F)c12 [Compound 132] | < 100 nM | < 100 nM | < 100 nM | < 100 nM | < 100 nM |  |  | 
C#Cc1cccc2cc(O)cc(-c3ncc4c(N5CC6CCC(C5)N6)nc(OCC5(CN6CCC(C(=O)N7CCN(C(=O)C8CCN(Cc9ccc%10c(c9)CN(C(=O)c9cc(C(C)C)c(O)cc9O)C%10)CC8)CC7)CC6)CC5)nc4c3F)c12 [Compound 121] | < 100 nM | 100 to 1000 nM | > 1000 nM | < 100 nM | > 1000 nM |  |  | 
C#Cc1cccc2cc(O)cc(-c3ncc4c(N5CC6CNC(C6)C5)nc(OCC5(CN6CCN(CC7CCN(Cc8ccc9c(c8)CN(C(=O)c8cc(C(C)C)c(O)cc8O)C9)CC7)CC6)CC5)nc4c3F)c12 (stereo not drawn) [Compound 129] | 100 to 1000 nM | 100 to 1000 nM | 100 to 1000 nM | < 100 nM | > 1000 nM |  |  | 
C#Cc1c(F)ccc2cc(O)cc(-c3ncc4c(N5CC6CCC(C5)N6)nc(OCC5(CN6CCC(C7CCN(Cc8ccc(-n9c(C(=O)NC(C)C(F)(F)F)nnc9-c9cc(C(C)C)c(O)cc9O)cc8)CC7)CC6)CC5)nc4c3F)c12 (stereo not drawn) [Compound 162] | < 100 nM | < 100 nM | < 100 nM | < 100 nM | < 100 nM |  |  | 
COc1cccc2cccc(-c3ncc4c(N5CC6CCC(C5)N6)nc(OC[C@@H]5C[C@H](N6CCN(Cc7ccc8c(c7)CN(C(=O)c7cc(C(C)C)c(O)cc7O)C8)CC6)CN5C)nc4c3F)c12 [Compound 102] | 100 to 1000 nM | 100 to 1000 nM | 100 to 1000 nM | 100 to 1000 nM | 100 to 1000 nM |  |  | 
C#Cc1c(F)ccc2cc(O)cc(-c3nc(OC)c4c(N5CC6CCC(C5)N6)nc(OCC5(CN6CCN(CC7CCN(Cc8ccc(-n9c(C(=O)NC(C)C(F)(F)F)nnc9-c9cc(C(C)C)c(O)cc9O)cc8)CC7)CC6)CC5)nc4c3F)c12 (stereo not drawn) [Compound 158] | < 100 nM | < 100 nM | < 100 nM | < 100 nM | < 100 nM |  |  | 
C#Cc1cccc2cc(O)cc(-c3ncc4c(N5CC6CCC(C5)N6C(=O)C(F)(F)F)nc(OCC5(CN6CCN(CC7CCN(Cc8ccc9c(c8)CN(C(=O)c8cc(C(C)C)c(O)cc8O)C9)CC7)CC6)CC5)nc4c3F)c12 [Compound 142] | 100 to 1000 nM | 100 to 1000 nM | 100 to 1000 nM | 100 to 1000 nM | 100 to 1000 nM |  |  | 
C#Cc1c(F)ccc2cc(O)cc(-c3nc(OC)c4c(N5CC6CCC(C5)N6)nc(OCC5(CN6CCN(CC7CCN(Cc8ccc9c(c8)CN(C(=O)c8cc(C(C)C)c(O)cc8O)C9)CC7)CC6)CC5)nc4c3F)c12 [Compound 156] | < 100 nM | < 100 nM | 100 to 1000 nM | < 100 nM | < 100 nM |  |  | 
CC(C)c1cc(C(=O)N2Cc3ccc(CN4CCC(CN5CCN(CC6(COc7nc(N8CC9CCC(C8)N9)c8cnc(-c9cc(O)cc%10ccccc9%10)c(F)c8n7)CC6)CC5)CC4)cc3C2)c(O)cc1O [Compound 159] | 100 to 1000 nM | 100 to 1000 nM | 100 to 1000 nM | < 100 nM | 100 to 1000 nM |  |  | 
C#Cc1c(F)ccc2cc(O)cc(-c3ncc4c(N5CC6CCC(C5)N6)nc(CCC5(CN6CCN(C7CCN(Cc8ccc9c(c8)CN(C(=O)c8cc(C(C)C)c(O)cc8O)C9)CC7)CC6)CC5)nc4c3F)c12 [Compound 161] | < 100 nM | < 100 nM | 100 to 1000 nM | < 100 nM | 100 to 1000 nM |  |  | 
C#Cc1cccc2cc(O)cc(-c3ncc4c(N5CC6CCC(C5)N6)nc(OCC5(CN6CCN(CC7CCN(Cc8ccc9c(c8)CN(C(=O)c8cc(C(C)C)c(OC)cc8O)C9)CC7)CC6)CC5)nc4c3F)c12 [Compound 144] | < 100 nM | 100 to 1000 nM | 100 to 1000 nM | < 100 nM | 100 to 1000 nM |  |  | 
C#Cc1cccc2cc(O)cc(-c3ncc4c(N5CC6CCC(C5)N6)nc(OCC5(CN6CCN(Cc7ccc(-n8c(C(=O)NCC(F)(F)F)nnc8-c8cc(C(C)C)c(O)cc8O)cc7)CC6)CC5)nc4c3F)c12 [Compound 130] | < 100 nM | < 100 nM | < 100 nM | < 100 nM | 100 to 1000 nM |  |  | 
Cc1cccc2cccc(-c3ncc4c(N5CC6CCC(C5)N6)nc(OC[C@@H]5C[C@H](N6CCN(Cc7ccc8c(c7)CN(C(=O)c7cc(C(C)C)c(O)cc7O)C8)CC6)CN5C)nc4c3F)c12 [Example 1] |  | 100 to 1000 nM |  | 100 to 1000 nM |  | 100 to 1000 nM | 100 to 1000 nM | 100 to 1000 nM
CC(C)c1cc(C(=O)N2Cc3ccc(CN4CCN([C@H]5C[C@@H](COc6nc(N7CC8CCC(C7)N8)c7cnc(-c8cccc9ccccc89)c(F)c7n6)N(C)C5)CC4)cc3C2)c(O)cc1O [Compound 35] | 100 to 1000 nM | 100 to 1000 nM | 100 to 1000 nM | > 1000 nM | 100 to 1000 nM |  |  | 
CCNC(=O)c1nnc(-c2cc(C(C)C)c(O)cc2O)n1-c1ccc(CN2CCN([C@H]3C[C@@H](COc4nc(N5CC6CCC(C5)N6)c5cnc(-c6cccc7cccc(OC)c67)c(F)c5n4)N(C)C3)CC2)cc1 [Compound 103] | < 100 nM | 100 to 1000 nM | 100 to 1000 nM | > 1000 nM | 100 to 1000 nM |  |  | 
C#Cc1c(F)ccc2cc(O)cc(-c3ncc4c(N5CC6CCC(C5)N6C(=O)C(F)(F)F)nc(OCC5(CN6CCN(CC7CCN(Cc8ccc(-n9c(C(=O)NCC)nnc9-c9cc(C(C)C)c(O)cc9O)cc8)CC7)CC6)CC5)nc4c3F)c12 [Compound 147] | < 100 nM | < 100 nM | < 100 nM | < 100 nM | 100 to 1000 nM |  |  | 
